Paper PMC11969438 (Inorganic Chemistry Frontiers, 2025)

How the values were obtained:
HCT116 cells = assay: MTT-based cell viability assay, 72 h; set-up: species or system human; conditions: without AA
Protocol: (§1) Cell models were seeded (2–2.5 × 10^3 cells per well) in 96-well plates. After 24 h of recovery, the compounds were applied at the concentrations indicated in triplicate. Cell viability was determined after 72 h of continuous drug incubation using an MTT-based cell viability assay (EZ4U, Biomedica, Vienna, Austria) according to the manufacturer's recommendations. Absorbance was measured at 450 nm (vs. 620 nm as reference) using a multimode microplate reader (Tecan Spark, Zurich, Switzerland). Half-maximal inhibitory concentrations (IC50 values) were derived via interpolation from dose–response curves, modeled with the four-parameter logistic (4PL) nonlinear regression model in GraphPad Prism (La Jolla, CA, USA) from at least three independent experiments.

THP1-Dual cells [1] = assay: Intracellular platinum accumulation in vitro by ICP-MS; type: cell-based, human; conditions: 3 h exposure; for cellular platinum accumulation: compared to oxaliplatin
Protocol: The THP1-Dual cell model was seeded at 1 × 10^6 cells per well in six-well plates. After 24 h of recovery, the compounds were applied at the concentrations indicated in triplicate. After 3 h of drug exposure, the cells were prepared as published previously.[13] […] The lysate was filled up to 8 mL with water. The platinum concentration was determined by ICP-MS analysis. Platinum and rhenium standards were derived from CPI International (Amsterdam, the Netherlands). The total platinum content was determined with an Agilent 7800 quadrupole-based ICP-MS instrument (Agilent Technologies, Tokyo, Japan) equipped with an Agilent SPS 4 autosampler (Agilent Technologies, Tokyo, Japan) and a MicroMist nebulizer at a sample uptake rate of approximately 0.2 mL min^−1. […] Argon was used as a plasma gas (15 L min^−1) and as a carrier gas (∼1.1 L min^−1). The dwell time was set to 0.1 s and the measurements were performed in 12 replicates with 100 sweeps. Rhenium served as an internal standard for platinum.

[2] = Hematological analysis after long-term treatment; conditions: 72 h after the fourth dose
Protocol: Mice were kept in groups of four per cage with sterilized paper-based environmental enrichment and food and water ad libitum, under pathogen-free conditions and a controlled environment with a 12 h light–dark cycle. Syngeneic models of colorectal carcinoma were generated via subcutaneous injection of CT-26 cells (0.5 × 10^6 cells in 50 μL of serum-free RPMI-1640 medium) into the right flank of 8–12 weeks old BALB/c mice. […] All animals were euthanized 24 h after the second dose. […] To determine the anticancer efficacy of the investigated compounds, treatment started 4 d after tumor implantation, when all tumors were measurable (>25 mm^3) using a twice-weekly treatment scheme for two weeks. Tumor size was determined daily via manual caliper measurement. The tumor volume was calculated as tumor volume = (length × diameter × diameter)/2. The overall condition, shape, and activity of the animals were assessed daily. Peripheral blood was collected from the submandibular vein in K3E K3EDTA tubes (Greiner Bio-One; Kremsmünster, AUT) on ice and was analyzed for hematological parameters (red blood cells (RBCs), hemoglobin (HGB), hematocrit (HCT), red cell distribution width (RDW), mean corpuscular volume (MCV), white blood cells (WBCs), lymphocytes (LYM), monocytes (MO), granulocytes (GRA), and platelets (PLT) using a Vet ABC hematology analyzer (scil Animal Care GmbH, Viernheim, Germany). EDTA-blood was centrifuged (900g, 10 min) twice and the supernatant (EDTA-plasma) was stored at −20 °C for subsequent cytokine/chemokine analysis using a Luminex detection platform. All animal experiments were performed with humane endpoints based on Federation of European Laboratory Animal Science Associations guidelines and according to the regulations of the Ethics Committee for the Care and Use of Laboratory Animals at the Medical University Vienna (proposal number BMBWF 2023–0.122.324). Animals were euthanized upon reaching a tumor volume of >1500 mm^3, a loss in body weight (>20%), tumor ulceration or other indications of deteriorated health. Animals were euthanized via cervical dislocation.

[3] = tested on: THP1-Dual, HCT116, HCT116/OxR and CT-26 cells; assay: MTT-based cell viability assay, 72 h, statements over all investigated cell lines; set-up: species or system human and murine
Protocol: as §1

THP1-Dual cells [4] = assay: Quantitative RT-PCR of target genes downstream of STING; type: cell-based, human; conditions: 24 h, prodrugs 100 μM, MSA-2 25 μM
Protocol: The THP1-Dual cell model was seeded at 1 × 10^6 cells per well in six-well plates. After 24 h of recovery, the compounds were applied at the concentrations indicated. After 24 h of drug exposure, total RNA was isolated using TRIzol reagent (Thermo Fisher Scientific, MA, USA), as described previously.[12] RNA was reverse transcribed into cDNA using RevertAid Reverse Transcriptase (Thermo Fisher Scientific). Real-time PCR was performed using the GoTaq® RT-qPCR system (Promega) with a CFX96 Touch Real-Time PCR Detection System (Bio-Rad Laboratories). Relative mRNA levels were quantified using the 2^−ddCT method.[54] RPL41 was used as a housekeeping gene. Human-specific primers were purchased from Eurofins Genomics (Ebersberg, Germany) with the following sequences: RPL41: fwd (5′-[…]-3′), rev (5′-[…]-3′); IFNB1: fwd (5′-CTTGGATTCCTACAAAGAAGCAGC-3′), rev (5′-[…]-3′); ISG15: fwd (5′-[…]-3′), rev (5′-[…]-3′); IFIT1: fwd (5′-[…]-3′), rev (5′-[…]-3′); CXCL10: fwd (5′-[…]-3′), rev (5′-[…]-3′); and CCL5: fwd (5′-[…]-3′), rev (5′-[…]-3′).

[5] = Cytokine and chemokine levels in plasma of treated animals, Luminex; type: in vivo, CT-26-bearing BALB/c mice; conditions: 24 h after second dose
Protocol: Next, the ProcartaPlex (96-well) multiplex assay panel was performed according to the manufacturer's recommendations. In brief, the capture bead mix was incubated with test samples (undiluted SN or mouse plasma) or standard mix overnight. The SN of three independent experiments or the plasma of four animals per treatment group was loaded onto the multiplex assay plate. Next, biotinylated detection antibody mix and Streptavidin-PE were added to the plate. Following the recommended washing steps, the samples were incubated in a reading buffer and were measured using a Luminex xMAP platform (Bio-Plex MAGPIX Multiplex Reader; Bio-Rad Laboratories) and analyzed using xPONENT software.
(§2) Tumor size was determined daily via manual caliper measurement. […] Animals were euthanized via cervical dislocation.

[6] = Body weight of treated animals; type: in vivo, CT-26-bearing BALB/c mice; conditions: peritumoral application
Protocol: as §2

| SMILES | IC50 (HCT116 cells) [µM] | cellular platinum accumulation (THP1-Dual cells [1]) | platelet counts (PLT) / thrombocytopenia [2] | absolute counts of white blood cells and subpopulations ([2]; i.v. twice a week for two weeks) | IC50 ratio prodrug vs free oxaliplatin, maximum over cell models [3] [fold] | cellular platinum content vs oxaliplatin (THP1-Dual cells [1]; 10 μM) | intracellular platinum levels vs oxaliplatin (THP1-Dual cells [1]; 50 μM, without statistical significance) | mRNA induction of immune response genes (IFN-β, ISG15, IFIT1, CXCL10, CCL5) (THP1-Dual cells [4]) | plasma IFN-β, IL-6 and M-CSF [5] | effect on body weights [6] |
| --- | --- | --- | --- | --- | --- | --- | --- | --- | --- | --- |
| O=C1[O][Pt]2([NH][C@@H]3CCCC[C@H]3[NH]2)[O]C1=O [oxaliplatin, reference compound] | 0.8 | accumulated dose-dependently | distinctly reduced platelet counts | massively lowered |  |  |  |  |  |  |
| COCCOCCOCCOCCC(=O)[O][Pt-2]12([O]C(=O)CCC(=O)c3cc4cc(OC)c(OC)cc4s3)([NH2+][C@@H]3CCCC[C@H]3[NH2+]1)[O]C(=O)C(=O)[O]2 [Ox-MSA-PEG-Es, (OC-6-44)-[(1R,2R)-1,2-cyclohexanediamino]-oxalato-[4-(5,6-dimethoxybenzo[b]thiophen-2-yl)-4-oxobutylcarboxylato]-[2,5,8,11-tetraoxatetradecanoato]platinum(IV)] |  | did not show a comparable amount of platinum hyper-accumulation |  |  | ≤ 40 | significantly higher platinum content | lower intracellular platinum levels | low propensity |  |  |
| COCCOCCOCCOCCNC(=O)[O][Pt-2]12([O]C(=O)CCC(=O)c3cc4cc(OC)c(OC)cc4s3)([NH2+][C@@H]3CCCC[C@H]3[NH2+]1)[O]C(=O)C(=O)[O]2 [Ox-MSA-PEG-Ca, (OC-6-34)-[(1R,2R)-1,2-cyclohexanediamino]-oxalato-[4-(5,6-dimethoxybenzo[b]thiophen-2-yl)-4-oxobutylcarboxylato]-[3,6,9,12-tetraoxatridecan-1-amino]platinum(IV)] |  |  |  |  | ≤ 40 |  |  | distinctly raised transcript levels to a comparable extent as free MSA-2 | highest activations | without negative effects on body weights |
